From US20030203373A1 (priority 2002, published 2003)
“And” between values parts separate entries of the source, which are not always exact repeats. Equal values may be shown once. Read-outs that look alike come from different tables or passages of the source. Ends that are not written are not given here.

Target: T1, ACE from pig kidney (Sus scrofa, UniProt F1RRW5)
T1 construct: 1 mU ACE from pig kidney (EC 3.4.15.1 (Sigma)); purchased Sigma; host or cells: pig kidney (tissue-derived enzyme)
T1 sequence (F1RRW5 34-1309): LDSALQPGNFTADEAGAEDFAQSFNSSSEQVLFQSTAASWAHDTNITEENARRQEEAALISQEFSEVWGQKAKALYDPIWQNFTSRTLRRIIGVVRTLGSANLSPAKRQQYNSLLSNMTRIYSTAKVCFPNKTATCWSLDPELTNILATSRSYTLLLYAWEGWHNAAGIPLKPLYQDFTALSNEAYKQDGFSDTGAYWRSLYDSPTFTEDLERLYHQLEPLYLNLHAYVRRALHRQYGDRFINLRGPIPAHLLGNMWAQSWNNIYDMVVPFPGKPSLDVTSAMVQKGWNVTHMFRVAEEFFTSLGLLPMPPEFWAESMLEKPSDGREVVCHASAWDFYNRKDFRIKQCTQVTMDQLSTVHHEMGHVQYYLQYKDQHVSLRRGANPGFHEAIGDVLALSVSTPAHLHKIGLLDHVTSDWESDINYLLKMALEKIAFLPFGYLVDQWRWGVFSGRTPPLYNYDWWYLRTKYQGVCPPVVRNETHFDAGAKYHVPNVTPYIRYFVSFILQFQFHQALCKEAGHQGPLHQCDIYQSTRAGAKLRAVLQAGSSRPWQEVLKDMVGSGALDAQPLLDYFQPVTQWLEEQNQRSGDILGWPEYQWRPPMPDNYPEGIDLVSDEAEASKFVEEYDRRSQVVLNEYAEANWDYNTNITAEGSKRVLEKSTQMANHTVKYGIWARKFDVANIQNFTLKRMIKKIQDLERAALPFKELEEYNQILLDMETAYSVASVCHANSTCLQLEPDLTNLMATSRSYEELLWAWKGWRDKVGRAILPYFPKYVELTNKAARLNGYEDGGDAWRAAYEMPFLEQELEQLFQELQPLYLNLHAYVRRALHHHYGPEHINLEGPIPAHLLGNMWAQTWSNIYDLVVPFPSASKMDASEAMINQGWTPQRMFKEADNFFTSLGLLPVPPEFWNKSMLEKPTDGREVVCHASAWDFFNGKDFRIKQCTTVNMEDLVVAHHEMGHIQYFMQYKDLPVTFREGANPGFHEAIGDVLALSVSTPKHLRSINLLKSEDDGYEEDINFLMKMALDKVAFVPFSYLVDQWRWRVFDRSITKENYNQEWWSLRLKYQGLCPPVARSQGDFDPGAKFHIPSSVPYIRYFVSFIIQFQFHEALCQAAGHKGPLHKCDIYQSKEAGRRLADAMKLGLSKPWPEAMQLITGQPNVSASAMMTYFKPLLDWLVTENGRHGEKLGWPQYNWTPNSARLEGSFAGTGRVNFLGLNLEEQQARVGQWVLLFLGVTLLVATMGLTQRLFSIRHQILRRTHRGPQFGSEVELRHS
Assay: biochemical
Type: biochemical
Description: These peptides were investigated for their inhibitory effect using an in vitro-ACE-inhibitor-assay with an angiotensin-converting-enzyme derived from pig kidney. Hippuryl-histidyl-leucin was used as a substrate. […] A concrete experimental description is given below.
The principle of the ACE-inhibition-assay was established by Chejung, H. S., Cushman, D. W.: “Inhibition of homogenous angiotensin converting enzyme of rabbit lung by synthetic venom peptides of Bothrops jararaca.” in Biochimica et Biophysica Acta 293, 451-563 (1973).
The assay was performed in 96 well HTRF-plates (Packard). The concentrations used for each well were:
1 mU ACE from pig kidney (EC 3.4.15.1 (Sigma)) in 30 μl of assay buffer (25 mM HEPES; 0,3 M NaCl, pH 8,2) and 20 μl inhibitor dissolved in assay buffer (0,35-200 μM). The reaction was started by adding 50 μl of 2 mM hippuryl-histidyl-leucin (Sigma) in assay buffer. The reaction was performed at room temperature (22° C.) for 30 minutes and terminated by adding 50 μl of 2 M NaOH. Afterwards 50 μl of 0,5% ortho-phtalaldehyd (Sigma) in methanol were added, 5 minutes later followed by 50 μl of 2,5 M HCl-solution to stabilize the developed fluorescence product.
The results were used to calculate the % inhibition. The IC50-values were determined graphically from a curve showing the dose-reaction ratio.
In order to minimize errors due to time-dependent differences, all pipetting steps were performed in a precise time schedule.

[1] = inhibitor 0.39 μM, replicates A-D
[2] = inhibitor 3.125 μM, replicates A-D
[3] = inhibitor 6.25 μM, replicates A-D
[4] = inhibitor 12.5 μM, replicates A-D
[5] = inhibitor 25 μM, replicates A-D
[6] = inhibitor 50 μM, replicates A-D
[7] = inhibitor 100 μM, replicates A-D
[8] = inhibitor 200 μM, replicates A-D

AGAALSPLPEVPP [Peptide S543]
IC50 (ACE from pig kidney, determined graphically, read-out: IC50-value (ACE inhibition)): 25 µM
fluorescence reading (ACE Inhibitor Assay) [1]: 959059 and 985299 and 971597 and 996656
inhibition at 0.39 µM [1]: 7.74%
% inhibition (ACE Inhibitor Assay) (inhibitor 0.39 μM, replicates A-D, 0.39 µM): 5.2% and 6.53% and 4.1%
fluorescence reading (ACE Inhibitor Assay) (inhibitor 0.78125 μM, replicates A-D): 946496 and 913444 and 925926 and 981909
% inhibition (ACE Inhibitor Assay) (inhibitor 0.78125 μM, replicates A-D, 0.78125 µM): 8.95% and 12.15% and 10.945% and 5.53%
fluorescence reading (ACE Inhibitor Assay) (inhibitor 1.5625 μM, replicates A-D): 923507 and 888699 and 915925 and 980940
% inhibition (ACE Inhibitor Assay) (inhibitor 1.5625 μM, replicates A-D, 1.5625 µM): 11.18% and 14.54% and 11.9% and 5.62%
fluorescence reading (ACE Inhibitor Assay) [2]: 868636 and 880388 and 856283 and 938801
inhibition at 3.125 µM [2]: 16.5%
% inhibition (ACE Inhibitor Assay) (inhibitor 3.125 μM, replicates A-D, 3.125 µM): 15.35% and 17.68% and 9.7%
fluorescence reading (ACE Inhibitor Assay) [3]: 816251 and 788199 and 773151 and 833135
inhibition at 6.25 µM [3]: 21.6%
% inhibition (ACE Inhibitor Assay) (inhibitor 6.25 μM, replicates A-D, 6.25 µM): 24.26% and 25.72% and 19.92%
fluorescence reading (ACE Inhibitor Assay) [4]: 683603 and 714973 and 720213 and 700323
inhibition at 12.5 µM [4]: 34.4%
% inhibition (ACE Inhibitor Assay) (inhibitor 12.5 μM, replicates A-D, 12.5 µM): 31.35% and 30.84% and 32.76%
fluorescence reading (ACE Inhibitor Assay) [5]: 519515 and 531562 and 515233 and 534895
inhibition at 25 µM [5]: 50.2%
% inhibition (ACE Inhibitor Assay) (inhibitor 25 μM, replicates A-D, 25 µM): 49.09% and 50.66% and 48.76%
fluorescence reading (ACE Inhibitor Assay) [6]: 362416 and 357767 and 358975 and 367216
inhibition at 50 µM [6]: 65.5%
% inhibition (ACE Inhibitor Assay) (inhibitor 50 μM, replicates A-D, 50 µM): 65.9% and 65.78% and 64.98%
fluorescence reading (ACE Inhibitor Assay) [7]: 211437 and 206169 and 209393 and 219372
inhibition at 100 µM [7]: 80%
% inhibition (ACE Inhibitor Assay) (inhibitor 100 μM, replicates A-D, 100 µM): 80.56% and 80.25% and 79.28%
fluorescence reading (ACE Inhibitor Assay) [8]: 107628 and 110019 and 108841 and 111945
inhibition at 200 µM [8]: 90.1%
% inhibition (ACE Inhibitor Assay) (inhibitor 200 μM, replicates A-D, 200 µM): 89.95% and 89.97% and 89.67%

CC[C@H](C)[C@H](NC(=O)[C@H](CCC(N)=O)NC(=O)[C@@H]1CCCN1C(=O)[C@H](CCCNC(=N)N)NC(=O)[C@@H]1CCCN1C(=O)[C@H](Cc1c[nH]c2ccccc12)NC(=O)[C@@H]1CCC(=O)N1)C(=O)N1CCC[C@H]1C(=O)N1CCC[C@H]1C(=O)O [BPP9a, reference compound]
IC50: 0.097 µM
fluorescence reading (ACE Inhibitor Assay) (inhibitor 0.0097 μM, replicates A-D): 710140 and 732003 and 790803 and 704452
% inhibition (ACE Inhibitor Assay) (inhibitor 0.0097 μM, replicates A-D, 0.0097 µM): 17.32% and 14.76% and 7.86% and 17.99%
fluorescence reading (ACE Inhibitor Assay) (inhibitor 0.0195 μM, replicates A-D): 651703 and 661931 and 697146 and 649942
% inhibition (ACE Inhibitor Assay) (inhibitor 0.0195 μM, replicates A-D, 0.0195 µM): 22.97% and 18.85% and 24.38%
fluorescence reading (ACE Inhibitor Assay) (inhibitor 0.039 μM, replicates A-D): 555538 and 591749 and 454421 and 628809
% inhibition (ACE Inhibitor Assay) (inhibitor 0.039 μM, replicates A-D, 0.039 µM): 35.44% and 31.2% and 47.3% and 26.86%
fluorescence reading (ACE Inhibitor Assay) (inhibitor 0.078 μM, replicates A-D): 487053 and 445495 and 462323 and 446174
% inhibition (ACE Inhibitor Assay) (inhibitor 0.078 μM, replicates A-D, 0.078 µM): 48.35% and 46.37% and 48.26%
fluorescence reading (ACE Inhibitor Assay) (inhibitor 0.15625 μM, replicates A-D): 317736 and 311280 and 262186 and 309352
% inhibition (ACE Inhibitor Assay) (inhibitor 0.15625 μM, replicates A-D, 0.15625 µM): 64.08% and 69.83% and 64.3%
fluorescence reading (ACE Inhibitor Assay) (inhibitor 0.3125 μM, replicates A-D): 143514 and 147997 and 149103 and 141700
% inhibition (ACE Inhibitor Assay) (inhibitor 0.3125 μM, replicates A-D, 0.3125 µM): 83.22% and 83.09% and 83.96%
fluorescence reading (ACE Inhibitor Assay) (inhibitor 0.625 μM, replicates A-D): 60333 and 60929 and 57514 and 55616
% inhibition (ACE Inhibitor Assay) (inhibitor 0.625 μM, replicates A-D, 0.625 µM): 93.43% and 93.82% and 94.05%
fluorescence reading (ACE Inhibitor Assay) (inhibitor 1.25 μM, replicates A-D): 27485 and 26994 and 27156 and 25833
% inhibition (ACE Inhibitor Assay) (inhibitor 1.25 μM, replicates A-D, 1.25 µM): 97.4% and 97.38% and 97.54%
fluorescence reading (ACE Inhibitor Assay) (inhibitor 2.5 μM, replicates A-D): 13903 and 14148 and 15119 and 13979
% inhibition (ACE Inhibitor Assay) (inhibitor 2.5 μM, replicates A-D, 2.5 µM): 98.91% and 98.79% and 98.93%
fluorescence reading (ACE Inhibitor Assay) (inhibitor 5 μM, replicates A-D): 9634 and 9626 and 9656 and 10561
% inhibition (ACE Inhibitor Assay) (inhibitor 5 μM, replicates A-D, 5 µM): 99.33%
inhibition at 0.0195 µM (read-out: % inhibition (ACE Inhibitor Assay), inhibitor 0.0195 μM, replicates A-D): 24.2%
inhibition at 0.078 µM (read-out: % inhibition (ACE Inhibitor Assay), inhibitor 0.078 μM, replicates A-D): 43.5%
inhibition at 0.15625 µM (read-out: % inhibition (ACE Inhibitor Assay), inhibitor 0.15625 μM, replicates A-D): 63.3%
inhibition at 0.3125 µM (read-out: % inhibition (ACE Inhibitor Assay), inhibitor 0.3125 μM, replicates A-D): 83.8%
inhibition at 0.625 µM (read-out: % inhibition (ACE Inhibitor Assay), inhibitor 0.625 μM, replicates A-D): 93.5%
inhibition at 1.25 µM (read-out: % inhibition (ACE Inhibitor Assay), inhibitor 1.25 μM, replicates A-D): 97.3%
inhibition at 2.5 µM (read-out: % inhibition (ACE Inhibitor Assay), inhibitor 2.5 μM, replicates A-D): 98.9%
inhibition at 5 µM (read-out: % inhibition (ACE Inhibitor Assay), inhibitor 5 μM, replicates A-D): 99.4%
